Source: patent US11634688B2, “Methods and compositions for inducing hematopoietic cell differentiation” (FATE THERAPEUTICS, INC., priority 2015, dated 2023)

Columns and labels:
hiPSCs = experiment: generation of CD34+ HE from hiPSC monolayer differentiation, flow cytometry at about D10; format: cell-based, human
Experimental: The above iHSC platform was further optimized for hematopoietic lineage cells differentiation. To initiate differentiation towards the hematopoietic lineage, hiPSCs were seeded as a monolayer on Day (D) 0 in the maintenance medium and allowed to adhere and expand for about 24 hours. At this point, the maintenance medium was removed and replaced with base medium without maintenance factors at D1. Hematopoietic differentiation was initiated at around D2 by switching the culture medium to iCD34-A (see FIG. 12). […] The monolayers were maintained until around D5-D6 at which point they were dissociated into single cells and seeded as a low density monolayer in iCD34-C medium until differentiation around D10. Low oxygen tension (2-10% O2) was maintained from the onset of hematopoietic differentiation around D2 up until around D10 of differentiation.
During the culture process, the directed differentiation towards the hematopoietic lineage was monitored by the dissociation of the monolayers into single cells and analysis for the surface marker expression of CD34, and optionally, CD43, CD45, CXCR4 and CD73 (FIG. 15A). At around D8 of differentiation, the appearance of a cell population representing HE was observed by the cell surface expression signature CD34+. CD43−CXCR4−CD73− was also observed in the CD34+ cells. The CD34+ population was maintained until around D10 (FIG. 15A). At D10, which time point can be shortened to about D9 or extended until about D12, the cells were dissociated into single cells and the CD34+ HE population was sorted by FACS using a BD FACS Aria for further analysis and functional assessment. […]
To optimize the efficient generation of HE from hiPSCs after around 10 days of differentiation several parameters were examined. The optimal plating density of the monolayers at DO of differentiation was assessed by plating increasing amounts of hiPSCs from 7.5×10^4/well to 1.5×10^5/well on matrigel™-coated 6 well culture dishes and then analyzing the generation of the CD34+ HE population at about D10. […]
The effect of the concentration of BMP4 modulation during the initial stages of hematopoietic differentiation on the generation of HE was assessed by treating the cultures with increasing concentrations of BMP4 ranging from 0 ng/ml to 30 ng/ml from about D2 to about D6 of differentiation. The generation of HE at D10 was assessed by the detection of the CD34+ HE population.
The Wnt pathway activator CHIR99021 is responsible for the induction of the definitive hematopoetic program from hiPSCs. The effect of the modulation of CHIR during the induction phase of the hematopoietic differentiation protocol was assessed by treating the cultures with increasing concentrations of CHIR from about D3.75 to about D6. […]

[1] = test system: umbilical cord blood CD34+ cells; experiment: stromal-free NK cell differentiation on plate-bound DLL4, umbilical cord blood CD34+ cells; conditions: plate-bound DLL4 vs stromal-based and stromal-free control cultures; 10-15 days
Experimental: Specific to NK cells, enriched umbilical cord blood CD34+ cells were plated in iNK-A serum-free differentiation media containing SCF, Flt3L, IL3, IL15 and IL7 in culture plates containing DLL4 protein or control protein. After 5 days the iNK-B medium was maintained to complete NK cell differentiation. After approximately 10-15 days of culture, the culture was assessed for the generation of NK cell progenitors and the absence of myeloid cells. CD56, CD7 and CD161 are the first cell surface markers to be expressed during NK cell development. CD11b and CD14 are cell surface markers expressed on myeloid cell subsets. FIG. 29 depicts stromal-free differentiation of umbilical cord blood CD34+ cells towards NK cells. […] Early NK lineage markers identify the presence of proNK cells as defined by CD56, CD7 and CD161 and the absence of myeloid markers CD11b and CD14.

[2] = test system: Day 10 CD34+ iHE sorted cells; experiment: stromal-free NK cell differentiation on plate-bound DLL4, hiPSC-derived iHE; format: cell-based, human; conditions: plate bound DLL4 vs control protein; CD45+ gating
[3] = CHIR from about D3.75 to about D6

IGF1: insulin-like growth factor 1 was tested, and the “effect of addition of IGF1 and EPO on percentage of HE at around D10” value (hiPSCs; IGF1 and EPO added together at Day 8) was “decreases the percentage of HE”.

“DLL4: Notch activator, plate-bound DLL4 protein” was tested, and the “differentiation of CD56+CD7+CD161+ NK cell progenitors” value [1] was “supports a more rapid and efficient differentiation of CD56+CD7+CD161+ NK cell progenitors” and the “differentiation of NK cell progenitors and myeloid cells” value [2] was “supports the differentiation of CD56+CD7+CD161+ NK cell progenitors but not CD11b+myeloid cells”.

In the case of Cc1c[nH]c(-c2cnc(NCCNc3ccc(C#N)cn3)nc2-c2ccc(Cl)cc2Cl)n1 [CHIR99021, reference compound], the “effect of increasing CHIR99021 concentration on percentage of HE subpopulation” value (hiPSCs; [3]) is reported as “decreases the percentage of the HE subpopulation” and the “effect of increasing CHIR99021 concentration on total percentage of CD34+ cells” value (hiPSCs; [3]) is reported as “increases the total percentage of CD34+ cells”.

B1: BMP4: bone morphogenetic protein, BMP pathway activator (protein, UniProt P12644 293-408, looked up)
Bone morphogenetic protein 4: SPKHHSQRARKKNKNCRRHSLYVDFSDVGWNDWIVAPPGYQAFYCHGDCPFPLADHLNSTNHAIVQTLVNSVNSSIPKACCVPTELSAISMLYLDEYDKVVLKNYQEMVVEGCGCR
With B1 the “optimal concentration of BMP4 for HE population at D10” value (hiPSCs; BMP4 0 ng/ml to 30 ng/ml from about D2 to about D6, CD34+ HE at D10) was “about 3 ng/mL”.
